Data taken from patent publication US11331299B2, “Medicinal use of serrulatane diterpenes” (The University of Sydney, priority 2016, dated 2022).
Read-outs that look alike come from different tables or passages of the source.

Test system: 280 human cancer cell lines
Test: OncoPanel cell proliferation assay (10-day)
Assay type: cell-based
Settings: Homo sapiens; for EC50: read-out: Cell Count EC50; for IC50: read-out: Cell Count IC50
[1] = SW872, SW872, Soft Tissue - Sarcoma
[2] = SW 954, SW954, Female GU - Vulva
[3] = SW982, SW982, Soft Tissue - Sarcoma
[4] = SW1353, SW1353, Soft Tissue - Osteosarcoma
[5] = TE 125.T, Soft Tissue - Sarcoma
[6] = TE 381.T, Soft Tissue - Sarcoma
[7] = U2OS, Soft Tissue - Osteosarcoma
[8] = U-118-MG, U-118 MG, CNS - Glioma
[9] = VA-ES-BJ, Soft Tissue - Sarcoma
[10] = WM 266-4, WM-266-4, Skin (Melanoma)
[11] = NCI-H295R, Endocrine - Adrenal gland

## CC(C)=CCC[C@H](CO)[C@@H]1CC[C@@H](C)c2c1cc(C)c(O)c2O [Compound 1, 7,8,18-trihydroxyserrulat-14-ene]
[1]
  EC50: 960 nM
  IC50: 960 nM
SW872, SW872, Soft Tissue - Sarcoma, read-out: Cell Count GI50
  GI50: 960 nM
SW900, SW900, Lung - SCLC
  EC50: 3290 nM
  IC50: 3330 nM
SW900, SW900, Lung - SCLC, read-out: Cell Count GI50
  GI50: 3240 nM
SW948, SW948, Colon
  EC50: 2210 nM
  IC50: 2210 nM
SW948, SW948, Colon, read-out: Cell Count GI50
  GI50: 2200 nM
[2]
  EC50: 7630 nM
  IC50: 7630 nM
SW 954, SW954, Female GU - Vulva, read-out: Cell Count GI50
  GI50: 7600 nM
[3]
  EC50: 1070 nM
  IC50: 1070 nM
SW982, SW982, Soft Tissue - Sarcoma, read-out: Cell Count GI50
  GI50: 1070 nM
SW1088, SW1088, CNS - Glioma
  EC50: 2440 nM
  IC50: 2440 nM
SW1088, SW1088, CNS - Glioma, read-out: Cell Count GI50
  GI50: 2430 nM
[4]
  EC50: 1000 nM
  IC50: 1000 nM
SW1353, SW1353, Soft Tissue - Osteosarcoma, read-out: Cell Count GI50
  GI50: 990 nM
SW1417, SW1417, Colon
  EC50: 3150 nM
  IC50: 3150 nM
SW1417, SW1417, Colon, read-out: Cell Count GI50
  GI50: 3070 nM
SW1463, SW1463, Colon
  EC50: 3730 nM
  IC50: 3750 nM
SW1463, SW1463, Colon, read-out: Cell Count GI50
  GI50: 3710 nM
SW1783, SW1783, CNS - Glioma
  EC50: 3190 nM
  IC50: 3190 nM
SW1783, SW1783, CNS - Glioma, read-out: Cell Count GI50
  GI50: 3090 nM
SW-403, SW403, Colon
  EC50: 8090 nM
  IC50: 8110 nM
SW-403, SW403, Colon, read-out: Cell Count GI50
  GI50: 7890 nM
SW-620, SW620, Colon
  EC50: 1480 nM
  IC50: 1480 nM
SW-620, SW620, Colon, read-out: Cell Count GI50
  GI50: 1480 nM
SiHa, Female GU - Cervix
  EC50: 5220 nM
  IC50: 5230 nM
SiHa, Female GU - Cervix, read-out: Cell Count GI50
  GI50: 5170 nM
T24, Bladder
  EC50: 1440 nM
  IC50: 1440 nM
T24, Bladder, read-out: Cell Count GI50
  GI50: 1440 nM
T47D, Breast, read-out: Cell Count GI50
  GI50: 4280 nM
T98G, CNS - Glioma, read-out: Cell Count GI50
  GI50: 2050 nM
TCC-SUP, TCCSUP, Bladder
  EC50: 1750 nM
  IC50: 1750 nM
TCC-SUP, TCCSUP, Bladder, read-out: Cell Count GI50
  GI50: 1720 nM
[5]
  EC50: 6470 nM
  IC50: 9210 nM
TE 125.T, Soft Tissue - Sarcoma, read-out: Cell Count GI50
  GI50: 1480 nM
[6]
  EC50: 1620 nM
  IC50: 1620 nM
TE 381.T, Soft Tissue - Sarcoma, read-out: Cell Count GI50
  GI50: 1590 nM
TF-1, Leukemia
  EC50: 2110 nM
  IC50: 2110 nM
TF-1, Leukemia, read-out: Cell Count GI50
  GI50: 1980 nM
THP-1, Thp1, Leukemia
  EC50: 1380 nM
  IC50: 1380 nM
THP-1, Thp1, Leukemia, read-out: Cell Count GI50
  GI50: 1340 nM
TUR, Lymphoma
  EC50: 5090 nM
  IC50: 5090 nM
TUR, Lymphoma, read-out: Cell Count GI50
  GI50: 5080 nM
[7]
  EC50: 1660 nM
  IC50: 1660 nM
U2OS, Soft Tissue - Osteosarcoma, read-out: Cell Count GI50
  GI50: 1650 nM
U138-MG, U-138MG, CNS - Glioma
  EC50: 6290 nM
  IC50: 6330 nM
U138-MG, U-138MG, CNS - Glioma, read-out: Cell Count GI50
  GI50: 6150 nM
U266B1, Myeloma
  EC50: 3220 nM
  IC50: 3220 nM
U266B1, Myeloma, read-out: Cell Count GI50
  GI50: 3080 nM
U-87 MG, CNS - Glioma
  EC50: 2120 nM
  IC50: 2120 nM
U-87 MG, CNS - Glioma, read-out: Cell Count GI50
  GI50: 2040 nM
[8]
  EC50: 4560 nM
  IC50: 4580 nM
U-118-MG, U-118 MG, CNS - Glioma, read-out: Cell Count GI50
  GI50: 4490 nM
UMUC3, UM-UC-3, Bladder
  EC50: 1850 nM
  IC50: 1850 nM
UMUC3, UM-UC-3, Bladder, read-out: Cell Count GI50
  GI50: 1840 nM
[9]
  EC50: 3670 nM
  IC50: 3670 nM
VA-ES-BJ, Soft Tissue - Sarcoma, read-out: Cell Count GI50
  GI50: 3550 nM
[10]
  EC50: 1150 nM
  IC50: 1150 nM
WM 266-4, WM-266-4, Skin (Melanoma), read-out: Cell Count GI50
  GI50: 1140 nM
WiDr, Colon
  EC50: 2320 nM
  IC50: 2320 nM
WiDr, Colon, read-out: Cell Count GI50
  GI50: 2310 nM
Y79, Eye
  EC50: 5600 nM
  IC50: 5600 nM
Y79, Eye, read-out: Cell Count GI50
  GI50: 5330 nM
YAPC, Pancreas
  EC50: 1910 nM
  IC50: 1910 nM
YAPC, Pancreas, read-out: Cell Count GI50
  GI50: 1900 nM
[11]
  EC50: 14700 nM
  IC50: 14700 nM
T47D, Breast
  EC50: 4630 nM
  IC50: 4630 nM
T98G, CNS - Glioma
  EC50: 2050 nM
  IC50: 2050 nM
read-out: GI50
  GI50: 400 to 1000 nM
